Where two headings read alike, the source gives them in different places.
How the values were obtained:
[1] = system: beagle dog; assay: Evaluation of toxicity of subcutaneous administration; format: in vivo; conditions: sc
Experimental: (§1) The objectives of this study were to determine the potential toxicity of TXA formulations, when given by subcutaneous injection to the beagle dog and to evaluate the potential reversibility of any findings, in comparison to the Reference Control Item, Tranexamic acid. In addition, the toxicokinetic profiles were determined.
21 male and 21 female beagle dogs were used in this study. The animals were from 6 to 7 months old and weighed between 7.5 and 9.8 kg (males) and 6.0 and 8.2 kg (females) at initiation of dosing.
(§2) The Test, Reference Control and Reference Items were administered to the appropriate animals via subcutaneous injection into the scapular and mid-dorsal areas on Days 1, 4, 7, and 10. The dose volume for each animal was based on the most recent body weight measurement. The volume for each dose was administered using a syringe/needle over one injection. Injection sites were rotated between two delimited sites (and the same site for all animals on a given day). Dosing area was shaved as needed and injection sites were marked with a pen (target area of 5 cm×5 cm). The first dosing site was in the mid-scapular region of the back and the second dosing site was caudal to the first site in the mid-dorsum region.
Blood was collected from the jugular vein. Urine was collected overnight from individually housed animals. […]

[2] = Toxicokinetics of TXA in plasma after subcutaneous injection; format: in vivo, beagle dog
Experimental: as §1, §2
Blood was collected from the jugular vein (or cephalic vein) from all animals in lithium heparin-containing tubes.
Samples were mixed gently and placed on crushed wet ice until centrifugation, which was carried out as soon as practical. The samples were centrifuged for 10 minutes in a refrigerated centrifuge (set to maintain the temperature at 4° C.) at 2700 rpm. The resultant plasma was separated, transferred to uniquely labeled clear polypropylene tubes, and frozen immediately over dry ice and transferred to a freezer set to maintain −80° C.
Plasma samples were analyzed for concentration of the tranexamic acid using a validated analytical procedure.
Toxicokinetic parameters were generated from the test item (tranexamic acid) individual concentrations in plasma from Days 1 and 10, whenever practical.

[3] = Percent free (unencapsulated) TXA in the formulation; format: physicochemical; conditions: formulations dosed in the rat PK study (Table 2)
Source text: The present embodiments provide pharmaceutical formulations comprising multivesicular liposomes (MVLs) containing tranexamic acid (TXA) which minimize the side effects of TXA while maintaining or improving efficacy and lengthening the duration of the effect. The present embodiments also provide pharmaceutical formulations comprising TXA encapsulated in the MVLs and unencapsulated TXA. The term “unencapsulated” as used herein, means that the biologically active ingredient (e.g., tranexamic acid) is outside the MVL particles, for example, in the suspending solution. The unencapsulated TXA provides immediate efficacy of TXA while the use of TXA encapsulated MVLs formulations in the instant embodiments results in the release of TXA for an extended period. The processes of preparing the DEPO-TXAs and the methods of using the DEPO-TXA formulations for treating, ameliorating, or preventing blood loss are also disclosed herewith. […]
For the 40 mg/mL formulation, % PPV is about 50.0% and the assumed interstitial volume (mL) is about 20%, rendering about 62% free TXA outside of the multivesicular liposomes. […] During the first 12 h, the released TXA contributes to the initial TXA peak measured in the plasma. […]

NC[C@H]1CC[C@H](C(=O)O)CC1 [TXA, tranexamic acid]
clinical signs following dosing [1]: at a similar incidence and severity
mean peak exposures (Cmax) higher for the free TXA group than DepoTXA ([2]; 120 mg/kg dose level, Day 1): 28%
peak TXA levels lower for the free TXA group than DepoTXA ([2]; 120 mg/kg dose level, Day 10, after fourth and final sc dose): 14%
administered TXA cleared after 12 hours (percent of total AUC) ([2]; beagle dog, sc, FIGS. 5A, 5B): 94%
time to exposure to nearly the full TXA dose ([2]; beagle dog, sc, FIGS. 6A, 6B): less than 24 hours
AUC(0-t) ([2]; beagle, dog, plasma, sc, 120 mg/kg, beagle dog, sc, 120 mg/kg/dose, Day 1, read-out: AUC0-72): 490 µg·h/mL
Cmax ([2]; beagle, dog, plasma, sc, 120 mg/kg, beagle dog, sc, 120 mg/kg/dose, Day 1, read-out: Cmax): 140 µg/mL
Tmax ([2]; beagle, dog, plasma, sc, 120 mg/kg, beagle dog, sc, 120 mg/kg/dose, Day 1, read-out: Tmax): 1.2 h
half-life ([2]; beagle, dog, plasma, sc, 120 mg/kg, beagle dog, sc, 120 mg/kg/dose, Day 1, read-out: t1/2 (converted)): 25.7 h
AUC(0-t) ([2]; beagle, dog, plasma, sc, 120 mg/kg, beagle dog, sc, 120 mg/kg/dose, Day 10, read-out: AUC0-72): 484 µg·h/mL
Cmax ([2]; beagle, dog, plasma, sc, 120 mg/kg, beagle dog, sc, 120 mg/kg/dose, Day 10, read-out: Cmax): 119 µg/mL
Tmax ([2]; beagle, dog, plasma, sc, 120 mg/kg, beagle dog, sc, 120 mg/kg/dose, Day 10, read-out: Tmax): 1.1 h
half-life ([2]; beagle, dog, plasma, sc, 120 mg/kg, beagle dog, sc, 120 mg/kg/dose, Day 10, read-out: t1/2 (converted)): 28.9 h
half-life ([2]; beagle, dog, plasma, sc, 120 mg/kg, mean±SD, sc, 120 mg/kg, Day 1, read-out: Mean terminal elimination half-life (t1/2elim) (converted)): 25.7 ± 2 h
half-life ([2]; beagle, dog, plasma, sc, 120 mg/kg, mean±SD, sc, 120 mg/kg, Day 10, read-out: Mean terminal elimination half-life (t1/2elim) (converted)): 28.9 ± 2.9 h
Cmax ([2]; both sexes, beagle, dog, plasma, sc, 120 mg/kg, genders combined mean, sc, 120 mg/kg, Day 10, read-out: mean peak levels (Cmax)): 119 ± 15.4 µg/mL
AUC(0-t) ([2]; both sexes, beagle, dog, plasma, sc, 120 mg/kg, mean±SD, n=10, genders combined, sc, 120 mg/kg, Day 1, read-out: AUC0-24): 475 ± 35.1 µg·h/mL
AUC(0-t) ([2]; both sexes, beagle, dog, plasma, sc, 120 mg/kg, mean±SD, n=10, genders combined, sc, 120 mg/kg, Day 1, read-out: AUC0-48): 485 ± 36.1 µg·h/mL
AUC(0-t) ([2]; both sexes, beagle, dog, plasma, sc, 120 mg/kg, mean±SD, n=10, genders combined, sc, 120 mg/kg, Day 1, read-out: AUC0-72): 490 ± 36.5 µg·h/mL
Tmax ([2]; both sexes, beagle, dog, plasma, sc, 120 mg/kg, mean±SD, n=10, genders combined, sc, 120 mg/kg, Day 1, read-out: Tmax (plasma concentrations of TXA peaked)): 1.2 ± 0.42 h
Cmax ([2]; both sexes, beagle, dog, plasma, sc, 120 mg/kg, mean±SD, n=10, genders combined, sc, 120 mg/kg, Day 1, read-out: mean peak levels (Cmax)): 140 ± 19.2 µg/mL
AUC(0-t) ([2]; both sexes, beagle, dog, plasma, sc, 120 mg/kg, mean±SD, n=10, genders combined, sc, 120 mg/kg, Day 10, read-out: AUC0-24): 468 ± 42.5 µg·h/mL
AUC(0-t) ([2]; both sexes, beagle, dog, plasma, sc, 120 mg/kg, mean±SD, n=10, genders combined, sc, 120 mg/kg, Day 10, read-out: AUC0-48): 479 ± 44.2 µg·h/mL
AUC(0-t) ([2]; both sexes, beagle, dog, plasma, sc, 120 mg/kg, mean±SD, n=10, genders combined, sc, 120 mg/kg, Day 10, read-out: AUC0-72): 484 ± 45.2 µg·h/mL
Tmax ([2]; both sexes, beagle, dog, plasma, sc, 120 mg/kg, mean±SD, n=10, genders combined, sc, 120 mg/kg, Day 10, read-out: Tmax (mean peak concentrations reached)): 1.1 ± 0.32 h
AUC(0-inf) ([2]; both sexes, beagle, dog, plasma, mean±SD, n=10, genders combined, sc, 120 mg/kg, Day 1): 495 ± 36.8 µg·h/mL
Percent free TXA [3]: 100%
